# Measured values published in patent US20150107993A1, “METHODS AND APPARATUSES FOR […] POLLUTION” (Transfert Plus, s.e.c., priority 2012, published 2015).
# Experiments:
# [1] = test system: green algae Chlamydomonas reinhardtii (CC-125); assay: Algal fluorescence inhibition (F25m) measured with the microfluidic OLED/OPD test apparatus; format: cell-based; conditions: 1×10^6 cell/ml algal culture
# Description: According to an experimental evaluation using the test apparatus, green algae Chlamydomonas reinhardtii (CC-125) was cultivated in 250 mL Erlenmeyer flasks in High Salt Medium (HSM) with the adjusted pH=6.8±0.1. The algae were grown at 25° C. under a light intensity of 100 μmol·m-2·s-1 provided by white-light neon lamps and a 16 h-light/8 h-dark cycle. Cells were maintained continuously in the mid-exponential growth phase (up to 4×10^6 cell/ml) before experiments. To measure the minimum density of algae that can be detected, successive dilutions of a 3×10^6 cell/ml algal culture were prepared in HSM. These solutions were dark adapted for 15 min before fluorescence measurement in order to reoxidize photosystem II reaction centers.
# According to the experimental evaluation using the test apparatus, pollutant detection measurements, a 1×10^6 cell/ml green algal culture was used. […] Algal exposure to ethanol concentration used in this study (without DCMU) had no effect on the fluorescence measurements (data not shown). […]
# It was noticed that the injection of the pollutant changes fluorescence kinetics. An increase in the fluorescence signal for the first 100 ms, proportional to the pollutant concentration was observed. DCMU induced this fluorescence increase because it blocks the electron transfer in PSII. […]
# [2] = test system: green algae Chlamydomonas reinhardtii (CC-125); assay: Algal fluorescence inhibition (Vj) measured with the commercial Handy-PEA fluorometer; format: cell-based; conditions: Handy-PEA commercial system, 1×10^6 cell/ml algal culture, same experimental conditions, read-out: concentration of DCMU inhibiting 50% of the algae photochemistry (EC50), evaluated with Vj
# Description: According to the experimental evaluation using the test apparatus, pollutant detection measurements, a 1×10^6 cell/ml green algal culture was used. Different concentrations of Diuron or DCMU (3(3,4-dichlorophenyl)-1,1-dimethylurea from Aldrich) were prepared in pure ethanol. For each measurement, 30 μL of DCMU was mixed with 2 mL of algal solution. The mixtures were exposed for 30 min under a 100 μmol·m-2·s-1 light intensity, and then dark adapted for 15 min before being injected into the microfluidic chip with a syringe pump to fully fill a microfluidic chamber (around 10 μL). Algal exposure to ethanol concentration used in this study (without DCMU) had no effect on the fluorescence measurements (data not shown). Each measurement was replicated three times. […]
# According to the experimental evaluation using the test apparatus, Handy-PEA fluorometer (Hansatech Ltd.) was used as the commercial available equipment to be compared with the microfluidic sensor. […] Fluorescence emission was detected for wavelengths over 700 nm.
# According to the experimental evaluation using the test apparatus, from this kinetic of the fluorescence signal, it is possible to extract several parameters representing physiological processes. […] The relative variable fluorescence at 2 ms Vj is very sensitive to Diuron as it is proportional to reaction centers closed at 2 ms. […]
# Algae culture CC125 = assay: Oxygen concentration measurement with the nanofilament electrical detector in a microfluidic channel; format: cell-based, Chlamydomonas reinhardtii; conditions: 1 μM Diuron; CC125 5M cell/ml; -0.6V between working and reference electrode
# Description: According to an experimental evaluation, in order to measure the oxygen level, the electrodes making up the electrical detector are integrated in a glass microfluidic channel, and aligned on an OLED. Algae culture CC125 (5M cell/ml concentration) is injected in the microfluidic channel, the oxygen measure being continuously taken through applying-0.6V between the working electrode and the reference electrode. A Diuron concentration of 1 uM is added to the algae culture before the injection into the chip and the measuring. Standard measures of 1 uM of pollutant were made in triplicate.
# Oxygen variation of algae, which is the combination of both production and breathing of algae, can therefore be linked to the pollutant concentration contained in the analyte. In order to measure oxygen production, this detector is also composed of the same organic light source used by the fluorescence detector (OLED.
# FIG. 22A refers to oxygen concentration levels measured with the electrical detector for 1 μM of Diuron and with a reference (that has not been exposed to Diuron).
smiles,measurement,setting,value
"CN(C)C(=O)Nc1ccc(Cl)c(Cl)c1 [Diuron, 3(3,4-dichlorophenyl)-1,1-dimethylurea]",lowest concentration tested that gave a significant difference with the control algae for the Finh parameter,[1]; 30 min of light exposure,7.5 nM
same,EC50,"[1]; Chlamydomonas reinhardtii, test apparatus, 30 min light exposure, 15 min dark adaptation, read-out: concentration of DCMU inhibiting 50% of the algae photochemistry (EC50), evaluated with F25m",11 nM
same,EC50,[2],220 nM
same,decrease in total oxygen production from algae,Algae culture CC125,about 26%
